{
  "source": "patent US20230143119A1",
  "about": "“PHARMACEUTICAL COMPOSITION FOR PREVENTION OR TREATMENT OF DIABETES AND METABOLIC DISEASES ASSOCIATED THEREWITH” (DONG-A ST CO., LTD., priority 2020, published 2023)",
  "key": {"[1]": {"tested_on": "normal mice", "assay": "Single dose administration in normal mice with oral sucrose loading", "format": "in vivo, ICR male mice", "details": "oral compound 1 3 mg/kg, voglibose 0.02 mg/kg, alone or in combination; sucrose 2 g/kg 30 min later", "method": "At a time point of 30 minutes later, sucrose solution was orally loaded at 2 g/kg/10 ml. […] A time-blood glucose level response curve was obtained. In terms of a rate of change, a comparison was made between an area under the time-blood glucose level curve in a control group administered with solvent only and an area under the time-blood glucose level curve in a drug administration group."}, "[2]": {"tested_on": "HF mice", "assay": "Three-week administration in high fat diet (HF) insulin resistant mice", "format": "in vivo, C57BL/6J male mice", "details": "for effect of reducing body fat: compound 1 50 mg/kg or metformin 150 mg/kg twice a day alone, body composition analysis by NMR; for blood concentration of total GLP-1 (GLP-1 secretion) / weight loss: compound 1 50 mg/kg, metformin 150 mg/kg, twice a day, alone or co-administered; for blood concentration of total GLP-1 (GLP-1 secretion): three weeks, nonfasting autopsy; for weight loss: two weeks", "method": "Four-weeks old C57BL/6J male mice were supplied with a high fat diet (Research Diets Inc., D12492; 60% kcal fat) for ten weeks so as to induce insulin resistance. After acclimatization to drug administration for two weeks, the mice were assigned into each group based on body weight and body fat. Compound 1 was administered alone at 50 mg/kg twice a day to a compound 1 monotherapy group, and metformin was administered alone at 150 mg/kg twice a day to a metformin monotherapy group. The co-administration group was orally co-administered with compound 1 at 50 mg/kg and metformin at 150 mg/kg twice a day for three weeks. […] Fasting blood glucose was measured from whole blood collected from a tail vein after fasting for six hours at the second week of administration using a Roche's AccuChek Active glucose meter."}, "[3]": {"tested_on": "DIO mice", "assay": "12-week drug-diet admixture in diet-induced obese (DIO) and insulin resistant mice", "format": "in vivo, C57BL/6J mice", "details": "compound 1 100 mg/kg/day, elafibranor 30 mg/kg/day, alone or in combination, 12 weeks", "method": "To induce insulin resistance, six-weeks old male C57BL/6J mice were supplied with a special diet of high fat, high fructose and high cholesterol (Research Diets Inc., D09100301) for at least 27 weeks. A drug-diet admixture was prepared so that diet-induced obese (DIO) and insulin resistant mice could be administered with each of compound 1 at 100 mg/kg/day and elafibranor at 30 mg/kg/day as a PPAR agonist alone or in combination. The prepared drug-diet admixture was supplied to mice for 12 weeks. Nonfasting blood glucose level was measured from plasma collected after autopsy at a time point of 12 weeks after drug administration using a Roche's AccuChek Active glucose meter."}},
  "data": [
    {"smiles": "OCC(CO)N[C@H]1C[C@](O)(CO)[C@@H](O)[C@H](O)[C@H]1O", "note": "[voglibose]", "values": [
      {"measurement": "hypoglycemic effect (postprandial blood glucose for two hours after sucrose loading)", "setting": "[1]", "result": "no hypoglycemic effect"}
    ]},
    {"smiles": "CN(C)C(=N)N=C(N)N", "note": "[metformin]", "values": [
      {"measurement": "effect of reducing body fat", "setting": "[2]", "result": "insignificant effect of reducing body fat"},
      {"measurement": "blood concentration of total GLP-1 (GLP-1 secretion)", "setting": "[2]", "result": "significant increase in GLP-1 secretion was not identified"},
      {"measurement": "weight loss", "setting": "[2]", "result": "−4.4", "unit": "%"}
    ]},
    {"smiles": "CSc1ccc(C(=O)/C=C/c2cc(C)c(OC(C)(C)C(=O)O)c(C)c2)cc1", "note": "[elafibranor]", "values": [
      {"measurement": "hypoglycemic effect (nonfasting blood glucose level)", "setting": "[3]", "result": "exhibited a hypoglycemic effect"}
    ]},
    {"smiles": "CCc1cnc(N2CCC(CCCOc3cc(F)c(-c4noc(C(C)C)n4)c(F)c3)CC2)nc1", "note": "[compound 1, 3-(4-(3-(1-(5-ethylpyrimidin-2-yl)piperidin-4-yl)propoxy)-2,6-difluorophenyl)-5-isopropyl-1,2,4-oxadiazole]", "values": [
      {"measurement": "hypoglycemic effect (nonfasting blood glucose level)", "setting": "[3]", "result": "did not exhibit a significant hypoglycemic effect"},
      {"measurement": "effect of reducing body fat", "setting": "[2]", "result": "no effect of reducing body fat"},
      {"measurement": "blood concentration of total GLP-1 (GLP-1 secretion)", "setting": "[2]", "result": "significant increase in GLP-1 secretion was not identified"},
      {"measurement": "weight loss", "setting": "[2]", "result": "−4.0", "unit": "%"}
    ]}
  ]
}
